{"source": "patent US11726102B2", "about": "“Particle-based drug detection method and device embodiments” (Washington State University, priority 2015, dated 2023)", "key": {"[1]": {"assay": "THC on swab and in spit after cannabis inhalation (HPLC-MS)", "conditions": "saliva spit into collection vial after inhaling cannabis; one line per volunteer (V14, V27, V40)"}, "[2]": {"conditions": "cited from earlier work"}, "[3]": {"conditions": "at 25° C.; cited from earlier work"}, "[4]": {"conditions": "cited from earlier work", "remark": "listed apart in the source"}}, "note": "Several values for one entry are separate records, joined by “and”; a condition that tells them apart may be missing. Equal entries are not always repeated. Where two headings read alike, the source gives them in different places."}
{"smiles": "CCCCCc1cc(O)c2c(c1)OC(C)(C)[C@@H]1CCC(C)=C[C@@H]21", "note": "[THC, Δ^9-tetrahydrocannabinol]", "values": [{"measurement": "THC in Spit", "setting": "[1]", "result": "2110.1 ng and 2259.2 ng and 129.6 ng"}, {"measurement": "time THC can be detected in the blood", "setting": "[2]; after inhalation, blood analyses by GC-MS or LC-MS", "result": "3.5 to 5.5", "unit": "h"}, {"measurement": "time detectable in human samples after use", "setting": "[2]; chronic users", "result": "up to 15 days"}, {"measurement": "time detectable in human samples after use", "setting": "[2]; occasional users", "result": 1.3, "unit": "days"}, {"measurement": "vapor pressure", "setting": "[3]", "result": "4.6×10^−8 mmHg"}, {"measurement": "time for the concentration in the body to build up to intoxication levels", "setting": "[4]; after being consumed", "result": "at least 20 minutes"}, {"measurement": "psychoactive effects of THC felt after initial consumption", "setting": "[4]; after inhalation, estimated", "result": "2 to 4", "unit": "h"}]}
